Assay results from patent US20050054103A1, “Expansion of renewable stem cell populations using modulators of PI 3-kinase” (priority 2003, published 2005).

Columns and labels:
[1] = tested on: Lin− c-kit+ Sca-1+ murine hematopoietic precursors; conditions: cultured 7 days; cited from earlier work
[2] = cited from earlier work
CD34+ cells [3] = assay: Ex vivo expansion of CD34+ cells with the PI 3-kinase inhibitor Ly294002; type: cell-based, human
Procedure: Mononuclear cell fraction collection and purification: Human blood cells were obtained from umbilical cord blood from female patients following full-term, normal delivery (informed consent was obtained). Samples were collected and processed within 12 hours postpartum. […] Louis, Mo.), sedimented for 30 minutes to remove most red blood cells. The leukocyte-rich fraction was harvested and layered on a Ficoll-Hypaque gradient (1.077 gram/ml; Sigma), and centrifuged at 400 g for 30 minutes. […] Sigma, St. Louis, Mo.). Purification of CD34^+ cells from mononuclear cell fractions: To purify CD34^+ mononuclear cells, the mononuclear cell fraction was subjected to two cycles of immuno-magnetic separation using the MiniMACS® or […]® CD34 Progenitor Cell Isolation Kit (Miltenyi Biotec, Auburn, Calif.) as per manufacturer's recommendations. The purity of the CD34^+ population obtained ranged from 95% to 98%, as determined by flow cytometry (see below). Ex vivo expansion: Purified CD34+ cells were cultured in culture bags (American Fluoroseal Co. Gaithersburg, Md., USA) at a concentration of 1×10^4 cells/ml in MEMα/10% FCS containing the following human recombinant cytokines: […] The cultures were replenished weekly, for three weeks, with the same volume of fresh medium, Ly294002 and growth factors. From week three and up to the termination of the experiments the cultures were weekly demi-depopulated. Cells were counted following staining with trypan blue. At various time points, harvested cells were used to assay the content of colony forming units in culture (CFUc), enumeration of CD34+ cells following re-selection and immunophenotype analysis. Cell morphology was determined on cytospin (Shandon, Pittsburgh, Pa., USA) prepared smears stained with May-Grunwald/Giemsa solutions. Surface antigen analysis: The cells were washed with a PBS solution containing 1% BSA, and stained (at 4° C. for 30 min) with fluorescein isothiocyanate (FITC)- or phycoerythrin (PE)-conjugated antibodies. The cells were then washed in the above buffer and analyzed using a FACScalibur® flow cytometer (Becton Dickinson, San Jose, Calif., USA). The cells were passed at a rate of up to 1000 cells/second, using a 488 nm argon laser beam as the light source for excitation. Emission of 10^4 cells was measured using logarithmic amplification, and analyzed using the CellQuest software (Becton Dickinson). Determination of CD34+ cell content after expansion: The content of CD34+ cells was determined from a purified, re-selected fraction of expanded hematopoietic progenitor cells, using the MiniMACS CD34 progenitor cell isolation kit (Miltenyi Biotec) according to the manufacturers recommendations. In brief, mononuclear cells derived from one portion of the culture were subjected to two cycles of immunomagnetic bead separation. The purity of the CD34+ population thus obtained was 95-98%, as evaluated by flow cytometry. CD34+ cell content of the entire culture was calculated as follows: number of CD34+ cells recovered following repurification after expansion multiplied by the culture volume/volume of the portion of the culture subjected to repurification (CD34+total=CD34+ in sample×total culture volume/volume of repurified sample). Up to week three the cultures were topped weekly with fresh medium. Therefore, the culture volume was measured directly. From week three and on (due to demi-depopulation), the culture volume was calculating by multiplying the actual volume with the number of passages. Fold expansion was calculated by dividing the CD34+ cell content of the culture by the number of inoculated CD34+ cells (Fold expansion=total CD34+ content/CD34+ inoculated). […] Determination of early CD34+ cell subsets: The percentages of the early CD34+ cell subsets were determined as well from the re-purified CD34+ cell fraction. […]

CD34+ cells [4] = assay: Nicotinamide supplementation of ex-vivo hematopoietic stem/progenitor cell cultures; type: cell-based, human; conditions: for CD34+ cells per ml: 5 cytokines, re-selected
Procedure: Cultures were prepared and maintained as described above. Nicotinamide was added to cell cultures at concentrations of 1, 5 or 10 mM for up to three weeks culture period. All other procedures including mononuclear cell fraction collection and purification, purification of CD34^+ cells from mononuclear cell fractions, ex-vivo expansion of stem/progenitor cell populations, morphological assessment, surface antigen analysis, determination of CD34, CD38, Lin and other hematopoietic marker expression and cell population calculations were carried out as described in the experimental methods section of Example 1 above.
Hematopoietic CD34+ cell cultures were initiated in the presence of a combination of 5 cytokines, SCF, TPO, FLt3, IL-6 and IL-3, with or without different concentrations of nicotinamide. Following three weeks incubation period, the CD34+ cells were re-selected from culture by affinity re-purification method and were enumerated. […] In addition, the re-selected CD34+ cell fraction was FACS analyzed for stem/progenitor cell markers. The results, presented in FIGS. 15-17 and 18a-b, show substantial increases in the proportion of CD34+/CD38−, CD34+/Lin− and CD34+/(HLA-DR38−) cells in cultures treated with nicotinamide.

[5] = tested on: cord blood-derived CD34+ cells; assay: Copper-chelating peptides in CD34 cell cultures (proliferation, clonability); type: cell-based, human; conditions: after 7 weeks; peptides 10 μM each, G-CSF and GM-CSF 10 ng/ml each
Procedure: CD34 cells selection: Peripheral blood “buffy coat” cells derived from a whole blood unit, peripheral blood cells obtained following leukapheresis, or blood cells were layered on Ficoll-Hypaque (density 1.077 g/ml) and centrifuged at 1,000×g for 20 minutes at room temperature. The interphase layer of mononuclear cells were collected, washed three times with Ca/Mg free phosphate buffered saline containing 1% bovine serum albumin (BSA). The cells were incubated for 30 minutes at 4° C. with murine monoclonal anti CD34 antibody (0.5 μg/10^6 […] cells) and thereafter isolated using the miniMACA apparatus (Miltenyi-Biotec, Bergisch, Gladbach, Germany) according to the manufacturer's protocol.
Culture procedures: For the expansion of progenitor cells, CD34^+ enriched fractions were seeded at 1×10^4 cells/ml in alpha minimal essential medium containing 10% preselected fetal calf serum (FCS) (both from GIBCO, Grand Island, N.Y.). The medium was supplemented with a mixture of growth factors and Copper chelators. The cultures were incubated at 37° C. in an atmosphere of 5% CO2 in air with extra humidity. Half of the medium was changed weekly with fresh medium containing all the supplements.
The cloning potential of the cultured cells was assayed in semi-solid medium. The cells were washed and seeded in 35 mm dishes in methylcellulose containing alpha medium supplemented with 30% FCS and further with recombinant growth factors (stem cell factor (SCF), G-CSF, GM-CSF and erythropoietin (EPO)). Following two week incubation, the cultures were scored with an inverted microscope. Colonies were classified as blast, mixed, erythroid, myeloid, and megakaryocytic, according to their cellular composition.
The effect of Copper-chelating peptides on proliferation and clonability in CD34 cell cultures: Cultures were initiated with 10^4 cord blood-derived CD34^+ cells by plating purified cells in liquid medium in the presence of SCF, FLT3 and IL-6 (50 ng/ml each) and the Copper-binding peptides, Gly-Gly-His (GGH) or Gly-His-Lys (GHL) (10 μM each), or the late-acting cytokines G-CSF and GM-CSF (10 ng/ml each). At weekly intervals, the cultures were demi-depopulated and supplemented with fresh medium, cytokines and the peptides. After 7 weeks, cells were counted and assayed for CFUc.

CD34 cells = assay: Transition metal chelators in CD34+ cell liquid cultures (cell number, CD34 cells, clonability); type: cell-based, human
Procedure: The interphase layer of mononuclear cells were collected, washed three times with Ca/Mg free phosphate buffered saline containing 1% bovine serum albumin (BSA). The cells were incubated for 30 min. at 4° C. with murine monoclonal anti CD34 antibody (0.5 μg/10^6 mononuclear cells) and thereafter isolated using the miniMACS apparatus (Miltenyi-Biotec, Bergisch, Gladbach, Germany) according to the manufacturer's protocol.
Culture procedures: For the expansion of progenitor cells, CD34^+ enriched fractions or unseparated mononuclear cells were seeded at about 1-3×10^4 cells/ml in either alpha minimal essential medium containing 10% preselected fetal calf serum (FCS) (both from GIBCO, Grand Island, N.Y.), or serum-free medium (Progenitor-34 medium, Life Technologies, Grand Island, N.Y.). The media were supplemented with a mixture of growth factors and transition metal chelators. The cultures were incubated at 37° C. in an atmosphere of 5% CO2 in air with extra humidity. Half of the medium was changed weekly with fresh medium containing all the supplements.
Cloning potential evaluations: The cloning potential of cells developed in the liquid culture was assayed, at different intervals, in semi-solid medium. The cells were washed and seeded in 35 mm dishes in methylcellulose containing alpha medium supplemented with recombinant growth factors (SCF, G-CSF, GM-CSF and EPO). Following 2 weeks incubation, the cultures were scored with an inverted microscope. Colonies were classified as blast, mixed, erythroid, myeloid, and megakaryocytic, according to their cellular composition.
Morphological assessment: In order to characterize the resulting culture populations, aliquots of cells were deposited on a glass slide (cytocentrifuge, Shandon, Runcorn, UK), fixed and stained in May-Grunwald Giemsa. Other aliquots were stained by benzidine for intracellular hemoglobin.
Immunofluorescence staining: At different intervals, cells from the liquid cultures were assayed for CD34 antigen. Aliquots were harvested, washed and incubated on ice with FITC-labeled anti CD45 monoclonal antibody and either PE-labeled anti CD34 (HPCA-2) monoclonal antibody or PE-labeled control mouse Ig. After incubation, red cells were lysed with lysing solution, while the remaining cells were washed and analyzed by flow cytometer.
Flow cytometry: Cells were analyzed and sorted using FACStar^plus flow cytometer (Becton-Dickinson, Immunofluorometry systems, Mountain View, Calif.). Cells were passed at a rate of 1,000 cells/second through a […] nozzle, using saline as the sheath fluid. […] The PMTs was set at the appropriate voltage. Logarithmic amplification was applied for measurements of fluorescence and linear amplification—for forward light scatter. At least 10^4 cells were analyzed.
Cord blood-derived CD34 cells were plated in liquid culture in the presence of: FL—50 ng/ml, SCF—50 ng/ml, IL-6—50 ng/ml, with or without IL-3—20 ng/ml, with or without TEPA—10 μM. On day 7, the percentage of CD34 cells and the total cell number were determined. Aliquots equivalent to 1×10^3 initiating cells were assayed on days 0 and 7 for colony forming cells (CFU) by cloning in semi-solid medium. CFU expansion represents the ratio of CFU present on day 7 to CFU present on day 0.
CD34^+ cells derived from human neonatal cord blood were purified by immunomagnetic method and then cultured in liquid medium supplemented with cytokines either with or without transition metal chelators. At weekly intervals, the cultures were demi-depopulated by removing half of the culture content (supernatant and cells) and replacing it with fresh medium, cytokines and the chelators. At the indicated weeks the cellular content of the cultures were quantified for total cells (by a manual microscopic/hemocytometric method), for CD34^+ cells (by immuno-flow cytometry) and for clonogenic cells (by cloning the cells in cytokine-supplemented semi-solid medium).

[6] = Cytokines + Ly294002, two weeks
[7] = Cytokines + Ly294002, two weeks, percentage of re-purified CD34+ cells

Cc1ccc(C2=CCC(C)(C)c3ccc(C#Cc4ccc(C(=O)O)cc4)cc32)cc1 [AGN 193109]
increase in the pre-CFU-S population [1]: approximately 6 fold

O=c1cc(N2CCOCC2)oc2c(-c3ccccc3)cccc12 [LY294002]
membrane permeability [2]: membrane permeable | CD34 + CD38- ×10^4 (CD34+ cells [3]; [6]): 4.8 ×10^4 | CD34 + Lin- ×10^4 (CD34+ cells [3]; [6]): 1.3 ×10^4 | CD34 × 10^4 (CD34+ cells [3]; [6]): 53 × 10^4 | TNC × 10^4 (CD34+ cells [3]; [6]): 155 × 10^4 | CD34 + CD38- (%) (CD34+ cells [3]; [7]): 9.1% | CD34 + Lin- (%) (CD34+ cells [3]; [7]): 2.5% | absolute content of CD34+CD38− cells (CD34+ cells [3]; two weeks): 9×10^4 cells | absolute content of CD34+CD38−Lin− cells (CD34+ cells [3]; two weeks): 2.5×10^4 cells | content of late progenitor, CD34+ cells (CD34+ cells [3]; two weeks, treated cultures): 65×10^4 cells | frequency of CD34+ cells among the total cultured cells (CD34+ cells [3]; two-weeks treatment): 0.3

NC(=O)c1cccnc1 [Nicotinamide]
CD34+ cells per ml (CD34+ cells [4]; 1 mM nicotinamide, three weeks): 99×10^4 cells per ml | increase in CD34+/CD38− cells density vs untreated control (CD34+ cells [4]; 1 mM, three weeks): 1.7 fold | increase in CD34+/Lin− cells density vs untreated control (CD34+ cells [4]; 1 mM, three weeks): 10.5 fold | CD34+ cells per ml (CD34+ cells [4]; 5 mM nicotinamide, three weeks): 180×10^4 cells per ml | increase in CD34+/(HLA-DR38−) cells density vs untreated control (CD34+ cells [4]; 5 mM, three weeks): 11.5 fold | increase in CD34+/CD38− cells density vs untreated control (CD34+ cells [4]; 5 mM, three weeks): 51.7 fold | increase in CD34+/Lin− cells density vs untreated control (CD34+ cells [4]; 5 mM, three weeks): 205.5 fold | % of CD34^+/CD38^− of total cells (CD34+ cells [4]; Nicotinamide 5 mM): 9.69% | % of CD34^+/Lin^− of total cells (CD34+ cells [4]; Nicotinamide 5 mM): 4.11% | % of CD34^+/CD38^− of total cells (CD34+ cells [4]; Nicotinamide 10 mM): 34.67% | % of CD34^+/Lin^− of total cells (CD34+ cells [4]; Nicotinamide 10 mM): 16.58%

Gly-Gly-His [GGH]
decrease of cell number [5]: 10% | decrease of clonogenic potential (CFUc) [5]: 80% | effect on differentiation of CD34+ cells (CD34 cells): stimulate differentiation

Gly-His-Lys [GHL]
decrease of cell number [5]: 25% | decrease of clonogenic potential (CFUc) [5]: 78% | effect on differentiation of CD34+ cells (CD34 cells): stimulate differentiation
